Assay results published in the NIST ThermoML archive (doi:10.1021/je700287u).

Experiment: xn = mol fraction of the nth substance listed
Settings: Liquid

CN(CCO)CCO [N-methyldiethanolamine] + O
Settings	mass density [kg/m3]
313.12 K, 1001 kPa, x1 = 0.0369	1005.7
313.12 K, 2015 kPa, x1 = 0.0369	1006.1
313.12 K, 2986 kPa, x1 = 0.0369	1006.5
313.12 K, 3994 kPa, x1 = 0.0369	1006.9
313.12 K, 5003 kPa, x1 = 0.0369	1007.3
313.12 K, 6002 kPa, x1 = 0.0369	1007.7
313.12 K, 6994 kPa, x1 = 0.0369	1008.1
313.12 K, 7995 kPa, x1 = 0.0369	1008.5
313.12 K, 8996 kPa, x1 = 0.0369	1008.9
313.12 K, 9983 kPa, x1 = 0.0369	1009.3
313.12 K, 10989 kPa, x1 = 0.0369	1009.7
313.12 K, 11991 kPa, x1 = 0.0369	1010.1
313.12 K, 12991 kPa, x1 = 0.0369	1010.5
313.12 K, 13988 kPa, x1 = 0.0369	1010.9
313.12 K, 14989 kPa, x1 = 0.0369	1011.4
313.12 K, 15985 kPa, x1 = 0.0369	1011.7
313.12 K, 16984 kPa, x1 = 0.0369	1012.1
313.12 K, 17985 kPa, x1 = 0.0369	1012.5
313.12 K, 18989 kPa, x1 = 0.0369	1012.9
313.12 K, 19945 kPa, x1 = 0.0369	1013.3
313.13 K, 1003 kPa, x1 = 0.1302	1033.5
313.13 K, 1011 kPa, x1 = 0.0893	1025.9
313.13 K, 1993 kPa, x1 = 0.1302	1033.9
313.13 K, 1994 kPa, x1 = 0.0893	1026.2
313.13 K, 2999 kPa, x1 = 0.1302	1034.3
313.13 K, 3002 kPa, x1 = 0.0893	1026.6
313.13 K, 3994 kPa, x1 = 0.1302	1034.6
313.13 K, 3998 kPa, x1 = 0.0893	1027
313.13 K, 4984 kPa, x1 = 0.1302	1035
313.13 K, 4998 kPa, x1 = 0.0893	1027.4
313.13 K, 6001 kPa, x1 = 0.0893	1027.8
313.13 K, 6001 kPa, x1 = 0.1302	1035.4
313.13 K, 6993 kPa, x1 = 0.1302	1035.8
313.13 K, 6994 kPa, x1 = 0.0893	1028.1
313.13 K, 8000 kPa, x1 = 0.0893	1028.5
313.13 K, 8003 kPa, x1 = 0.1302	1036.1
313.13 K, 8996 kPa, x1 = 0.1302	1036.5
313.13 K, 8999 kPa, x1 = 0.0893	1028.9
313.13 K, 9989 kPa, x1 = 0.1302	1036.8
313.13 K, 9995 kPa, x1 = 0.0893	1029.2
313.13 K, 10983 kPa, x1 = 0.1302	1037.2
313.13 K, 10990 kPa, x1 = 0.0893	1029.6
313.13 K, 11992 kPa, x1 = 0.1302	1037.6
313.13 K, 12001 kPa, x1 = 0.0893	1030
313.13 K, 12980 kPa, x1 = 0.1302	1037.9
313.13 K, 12989 kPa, x1 = 0.0893	1030.3
313.13 K, 14000 kPa, x1 = 0.0893	1030.7
313.13 K, 14000 kPa, x1 = 0.1302	1038.3
313.13 K, 14999 kPa, x1 = 0.0893	1031.1
313.13 K, 15002 kPa, x1 = 0.1302	1038.7
313.13 K, 15995 kPa, x1 = 0.0893	1031.4
313.13 K, 16001 kPa, x1 = 0.1302	1039.1
313.13 K, 16998 kPa, x1 = 0.1302	1039.5
313.13 K, 17013 kPa, x1 = 0.0893	1031.8
313.13 K, 17991 kPa, x1 = 0.1302	1039.8
313.13 K, 17993 kPa, x1 = 0.0893	1032.2
313.13 K, 18991 kPa, x1 = 0.0893	1032.6
313.13 K, 18996 kPa, x1 = 0.1302	1040.2
313.13 K, 19990 kPa, x1 = 0.1302	1040.5
313.13 K, 19991 kPa, x1 = 0.0893	1032.9
313.14 K, 999 kPa, x1 = 0.0607	1018.1
313.14 K, 2000 kPa, x1 = 0.0607	1018.5
313.14 K, 3028 kPa, x1 = 0.0607	1018.9
313.14 K, 4020 kPa, x1 = 0.0607	1019.3
313.14 K, 5011 kPa, x1 = 0.0607	1019.7
313.14 K, 6015 kPa, x1 = 0.0607	1020.1
313.14 K, 7003 kPa, x1 = 0.0607	1020.4
313.14 K, 8009 kPa, x1 = 0.0607	1020.8
313.14 K, 9014 kPa, x1 = 0.0607	1021.2
313.14 K, 10000 kPa, x1 = 0.0607	1021.5
313.14 K, 10977 kPa, x1 = 0.0607	1022
313.14 K, 12029 kPa, x1 = 0.0607	1022.3
313.14 K, 13022 kPa, x1 = 0.0607	1022.7
313.14 K, 13988 kPa, x1 = 0.0607	1023
313.14 K, 15009 kPa, x1 = 0.0607	1023.4
313.14 K, 16003 kPa, x1 = 0.0607	1023.8
313.14 K, 16995 kPa, x1 = 0.0607	1024.2
313.14 K, 18007 kPa, x1 = 0.0607	1024.6
313.14 K, 19000 kPa, x1 = 0.0607	1024.9
313.14 K, 19950 kPa, x1 = 0.0607	1025.3
323.08 K, 1011 kPa, x1 = 0.0607	1012.5
323.08 K, 2015 kPa, x1 = 0.0607	1012.9
323.08 K, 3015 kPa, x1 = 0.0607	1013.2
323.08 K, 4025 kPa, x1 = 0.0607	1013.7
323.08 K, 4995 kPa, x1 = 0.0607	1014
323.08 K, 6015 kPa, x1 = 0.0607	1014.4
323.08 K, 7015 kPa, x1 = 0.0607	1014.8
323.08 K, 7992 kPa, x1 = 0.0607	1015.2
323.08 K, 9006 kPa, x1 = 0.0607	1015.6
323.08 K, 10014 kPa, x1 = 0.0607	1016
323.08 K, 11000 kPa, x1 = 0.0607	1016.3
323.08 K, 12064 kPa, x1 = 0.0607	1016.8
323.08 K, 13004 kPa, x1 = 0.0607	1017.1
323.08 K, 13990 kPa, x1 = 0.0607	1017.5
323.08 K, 14997 kPa, x1 = 0.0607	1017.9
323.08 K, 15999 kPa, x1 = 0.0607	1018.2
323.08 K, 16993 kPa, x1 = 0.0607	1018.6
323.08 K, 18008 kPa, x1 = 0.0607	1019
323.08 K, 19017 kPa, x1 = 0.0607	1019.4
323.08 K, 19961 kPa, x1 = 0.0607	1019.7
323.09 K, 1017 kPa, x1 = 0.1302	1026.6
323.09 K, 1034 kPa, x1 = 0.0369	1001.1
323.09 K, 2001 kPa, x1 = 0.1302	1027
323.09 K, 2004 kPa, x1 = 0.0369	1001.5
323.09 K, 2993 kPa, x1 = 0.0369	1001.9
